Change in vivo and ED50 data for 18 compounds are collected here from patent publication US5164390A, “6-substituted purinyl piperazine derivatives” (Ortho Pharmaceutical Corporation, priority 1991, dated 1992).

This experiment concerns Adult mongrel dogs. The experiment is described as follows: Cardiotonic activity: hemodynamic and inotropic responses (MAP, HR, dP/dt, contractile force) in anesthetized dogs, iv infusion. The format is in vivo, mongrel dog. The conditions noted are these: Canis lupus familiaris; for ED50: dose producing a 50% increase above baseline in myocardial contractile force, iv, read-out: contractile force (CF) ED50. On the procedure: Adult mongrel dogs were anesthetized with sodium pentobarbital (45 mg/kg, i.p.) and artificially respired. Mean arterial pressure (MAP) was recorded from a cannulated femoral artery and drugs were infused into a cannulated femoral vein. The arterial pressure pulse was used to trigger a cardiotachometer for determination of heart rate (HR). Left ventricular pressure was measured with a Millar catheter and dP/dtmax was derived. A right thoracotomy was performed and myocardial contractile force (CF) was measured with a Walton Brodie strain gauge sutured to the right ventricle. The ventricular muscle was stretched to produce a baseline tension of 100 g. A standard dose of dopamine (10-15 ug/kg/min for 3 min) was administered to determine myocardial responsiveness to inotropic stimulation.
Test compounds were solubilized in a small volume of DMF diluted to a final concentration of 10% in physiological saline. Alternatively, where possible, a soluble hydrochloride salt was prepared by addition of 0.1N HCl diluted in physiological saline. Vehicles were tested in appropriate volumes and found to exert less than a 5% effect on contractile force. For iv studies, compounds were administered by infusion pump (one drug per animal) at rates of 0.58-2.2 mL/min in three to four stepwise increasing doses. Each dose was infused over 5 min immediately after the effect of the previous dose peaked. MAP, HR, dP/dtmax and CF responses were continuously monitored on a Beckman or Gould recorder and expressed as a percent change from pre-drug control values vs. the cumulative dose of drug administered. For these studies, n represents the number of test animals used.
Quantitation of the inotropic potency was obtained by calculation of the contractile force (CF) ED50. This was defined as the dose of compound that produced a 50% increase above baseline in myocardial contractile force. The value was obtained from three to four point dose-response curves using either graphical estimation (n<3) or linear regression analysis (n≥3). Numbers in parentheses are number of animals screened.

Setting [1] is: Table 1, 1.875 mg/kg iv, cumulative dose, read-out: CF (myocardial contractile force), % from Control.
Setting [2] is: Table 1, 1.875 mg/kg iv, cumulative dose, read-out: HR (heart rate), % from Control.
Setting [3] is: Table 1, 1.875 mg/kg iv, cumulative dose, read-out: MAP (mean arterial pressure), % from Control.
[4] abbreviates: Table 1, 1.875 mg/kg iv, cumulative dose, read-out: dPdt (left ventricular dP/dtmax), % from Control.
Setting [5] is: range in parentheses on next line.
The mark [6] stands for this setting: Table 2, 1.875 mpk iv, read-out: CF (myocardial contractile force), percent change from pre-drug control.
Where [7] appears, read: Table 2, 1.875 mpk iv, read-out: HR (heart rate), percent change from pre-drug control.
[8] abbreviates: Table 2, 1.875 mpk iv, read-out: MAP (mean arterial pressure), percent change from pre-drug control.
[9] abbreviates: Table 2, 1.875 mpk iv, read-out: dP/dt (left ventricular dP/dtmax), percent change from pre-drug control.

As a reminder, the ED50 is the dose at which the effect has come halfway, by size or by number of responders.

Where two headings read alike, the source gives them in different places.

Turning to `OC(CSc1ncnc2[nH]cnc12)CN1CCN(C(c2ccc(F)cc2)c2ccc(F)cc2)CC1` (stereo not shown) [Example 1, 6-[1-[1-[Bis(4-fluorophenyl)methyl]piperazine-4-yl]-2-hydroxy-3-propanylthio]purine Hemihydrate], the change in vivo at 1.875 mg/kg under setting [1] turned out to be 214%, the change in vivo at 1.875 mg/kg under setting [2] worked out at 1%, the change in vivo at 1.875 mg/kg under setting [3] is -5% and the change in vivo at 1.875 mg/kg under setting [4] worked out at 127%. Further, under setting [5], the median effective dose (ED50) amounted to 0.16 mg/kg.

Consider `O[C@H](CSc1ncnc2nc[nH]c12)CN1CCN(C(c2ccc(F)cc2)c2ccc(F)cc2)CC1` [Example 2, (2S)-(+)-6-[1-[1-[Bis(4-fluorophenyl)methyl]piperazin-4-yl]-2-hydroxy-3-propanylthio]purine], for which the change in vivo at 1.875 mg/kg is, setting by setting: under setting [1], 212%; under setting [2], -6%; under setting [3], -13%; under setting [4], 168%. Also, the ED50 under setting [5] is 0.07 mg/kg.

Consider `O[C@@H](CSc1ncnc2nc[nH]c12)CN1CCN(C(c2ccc(F)cc2)c2ccc(F)cc2)CC1` [Example 3, (2R)-(-)-6-[1-[1-[Bis(4-fluorophenyl)methyl]piperazin-4-yl]-2-hydroxy-3-propanylthio]purine], for which the change in vivo at 1.875 mg/kg runs as follows: under setting [1], 151%; under setting [2], -8%; under setting [3], -4%; under setting [4], 91%. Further, under setting [5], the ED50 was found to be 0.35 mg/kg.

`OC(CSc1ncnc2[nH]cnc12)CN1CCN(C(c2ccccc2)c2ccccc2)CC1` (stereo not shown) [Example 4, 6-[2-Hydroxy-3-(1-(diphenylmethyl)piperazin-4-yl)propan-1-yl]triopurine Hemihydrate]: the change in vivo at 1.875 mg/kg by setting is: under setting [1], 86%; under setting [2], -1%; under setting [3], -12%; under setting [4], 60%.

Take `OC(CSc1ncnc2[nH]cnc12)CN1CCN(Cc2ccccc2)CC1` (stereo not shown) [Example 5, 6-[1-[1-(Benzyl)piperazin-4-l]-2-hydroxy-3-propanylthio]purine Monomalonate.cndot.5/2 Hydrate]: the change in vivo at 1.875 mg/kg is, setting by setting: under setting [1], 43%; under setting [2], 5%; under setting [3], -3%; under setting [4], 58%.

As for `OC(CSc1ncnc2[nH]cnc12)CN1CCN(Cc2ccc3c(c2)OCO3)CC1` (stereo not shown) [Example 6, 6-[3-[4-(1,3-Benzodioxol-5-yl)methyl]piperazin-1-yl]-2-hydroxyprop-1-ylthio]purine Sesquihydrate], the change in vivo at 1.875 mg/kg is 79% under setting [1], 15% under setting [2], 4% under setting [3] and 80% under setting [4].

As for `OC(CSc1ncnc2[nH]cnc12)CN1CCN(C(c2ccccc2)c2ccc(Cl)cc2)CC1` (stereo not shown) [Example 7, 6-[1-[1-(4-Chlorobenzhydryl)]piperazin-4-yl]-2-hydroxy-3-propanylthio]purine Monohydrate], the change in vivo at 1.875 mg/kg runs as follows: under setting [1], 97%; under setting [2], 0%; under setting [3], 1%; under setting [4], 75%.

Turning to `OC(CSc1ncnc2[nH]cnc12)CN1CCN(C(c2ccc(C(F)(F)F)cc2)c2cccc(C(F)(F)F)c2)CC1` (stereo not shown) [Example 10, 6-[1-[1-(3,4'[Bis(trifluoromethylphenyl)methyl])piperazin-4-yl]-2-hydroxy-3-propanylthio]purine], the change in vivo at 1.875 mg/kg is 71% under setting [1], 0% under setting [2], 5% under setting [3] and 47% under setting [4].

For `CC(=O)OC(CSc1ncnc2[nH]cnc12)CN1CCN(C(c2ccc(F)cc2)c2ccc(F)cc2)CC1` (stereo not shown) [Example 11, 6-[1-[1-[Bis(4-fluorophenyl)methyl]piperazin-4-yl]-2-acetoxy-3-propanylthio]purine 3/4 Hydrate], the 50% effective dose (ED50) came out at 0.45 mg/kg. Also, the change in vivo at 1.875 mg/kg under setting [1] worked out at 145%. In addition, under setting [2], the change in vivo at 1.875 mg/kg was -4%. In addition, the change in vivo at 1.875 mg/kg under setting [3] was -12%. For the same compound, the change in vivo at 1.875 mg/kg under setting [4] was 62%.

As to `Fc1ccc(C(c2ccc(F)cc2)N2CCN(CCCSc3ncnc4nc[nH]c34)CC2)cc1` [Example 14, 6-[1-[1-[Bis(4-fluorophenyl)methyl]piperazin-4-yl]-3-propanylthio]purine], the change in vivo at 1.875 mg/kg under setting [1] came out at 38%, the change in vivo at 1.875 mg/kg under setting [2] was found to be 2%, the change in vivo at 1.875 mg/kg under setting [3] was -6% and the change in vivo at 1.875 mg/kg under setting [4] was found to be 17%.

Consider `OC(CSc1ncnc2[nH]cnc12)CN1CCC(=C(c2ccc(F)cc2)c2ccc(F)cc2)CC1` (stereo not shown) [Example 15, 6-[1-[4-[Bis(4'-fluorophenyl)methylene]-1-piperidinyl]-2-hydroxy-3-propanylthio]purine Hemihydrate], for which the ED50 is 0.725 mg/kg. The change in vivo at 1.875 mg/kg under setting [1] was found to be 87%. Besides, the change in vivo at 1.875 mg/kg under setting [2] is -7%. Moreover, under setting [3], the change in vivo at 1.875 mg/kg was -14%. Besides, the change in vivo at 1.875 mg/kg under setting [4] was determined as 28%.

As to `OC(CSc1ncnc2[nH]cnc12)CN1CCN(C(c2ccc(Cl)cc2)c2ccc(Cl)cc2)CC1` (stereo not shown) [Example 16, 6-[1-[1-[Bis(4-chlorophenyl)methyl]piperazin-4-yl]-2 hydroxy-3-propanylthio]purine.cndot.5/4 Hydrate], the ED50 came out at 0.608 mg/kg. For the same compound, under setting [1], the change in vivo at 1.875 mg/kg was 151%. For the same compound, the change in vivo at 1.875 mg/kg under setting [2] is -4%. The change in vivo at 1.875 mg/kg under setting [3] amounted to 9%. Moreover, the change in vivo at 1.875 mg/kg under setting [4] worked out at 99%.

Regarding `OC(COc1ncnc2c1ncn2C1CCCCO1)CN1CCN(C(c2ccc(F)cc2)c2ccc(F)cc2)CC1` (stereo not shown) [Example 17], the change in vivo at 1.875 mg/kg was 37% under setting [1], 0% under setting [2], -13% under setting [3] and 16% under setting [4].

Consider `OC(COc1ncnc2[nH]cnc12)CN1CCN(C(c2ccc(F)cc2)c2ccc(F)cc2)CC1` (stereo not shown) [Example 18, 6-[3-[4-Bis(4-fluorophenyl)methyl]piperazin-1-yl-2-hydroxy]propoxypurine], for which the ED50 was found to be 0.825 mg/kg. In addition, under setting [1], the change in vivo at 1.875 mg/kg was determined as 80%. Moreover, the change in vivo at 1.875 mg/kg under setting [2] is 12%. In addition, the change in vivo at 1.875 mg/kg under setting [3] was determined as 4%. In addition, the change in vivo at 1.875 mg/kg under setting [4] came out at 58%.

For `OC(COc1ncnc2c1ncn2C1CCCCO1)CN1CCN(C(c2ccccc2)c2ccccc2)CC1` (stereo not shown) [Example 19], the change in vivo at 1.875 mg/kg turned out to be 43% under setting [1], 3% under setting [2], 2% under setting [3] and 19% under setting [4].

In the case of `OC(COc1ncnc2nc[nH]c12)CN1CCN(C(c2ccccc2)c2ccccc2)CC1` (stereo not shown) [Example 20, 6-[3-[4-(Diphenylmethyl)piperazin-1-yl]-2-hydroxypropoxy]-purine], the change in vivo at 1.875 mg/kg worked out at 66% under setting [1], 2% under setting [2], 4% under setting [3] and 36% under setting [4].

Turning to `OC(CSc1ncnc2[nH]cnc12)CN1CCN(C(c2cccc(C(F)(F)F)c2)c2cccc(C(F)(F)F)c2)CC1` (stereo not shown) [Example 23, 6-[1-[1-[Bis(3-trifluoromethylphenyl)methyl]piperazin-4-yl]-2-hydroxy-3-propanylthio]purine Hemihydrate], the change in vivo at 1.875 mg/kg by setting is: under setting [6], 44%; under setting [7], -7%; under setting [8], 7%; under setting [9], 30%.

As for `OC(CSc1ncnc2[nH]c(-c3ccccc3)nc12)CN1CCN(C(c2ccc(F)cc2)c2ccc(F)cc2)CC1` (stereo not shown) [Example 24, 6-[1-[1-[Bis(4-fluorophenyl)methyl]piperazin-4-yl]-2-hydroxy-3-propanylthio]-8-phenylpurine.cndot.1/3Hydrate], the change in vivo at 1.875 mg/kg was 12% under setting [6], 4% under setting [7], -3% under setting [8] and 5% under setting [9].
